Measured values published in patent US20190216827A1, “Composite Formulation of Dutasteride and Tadalafil Comprising Glycerol Fatty Acid Ester Derivative or Propylene Glycol Fatty Acid Ester Derivative and Oral Capsule Formulation Comprising the Same” (Yuyu Pharma, Inc., priority 2016, published 2019).
≈ marks a conversion by molar mass, not a printed value.

Assays:
[1] = Solubility test of dutasteride and tadalafil in oils; assay type: physicochemical; details: for solubility in a general oil: castor oil or soybean oil; for Solubility / solubility at 24 h: room temperature, stirring for 24 hours; for solubility at 24 h: oil or lipid, thermodynamic from solid
Experimental: In order to determine the solubility of dutasteride and tadalafil in oils, the solubilities to soybean oil, castor oil, glycerol monooleate, glycerol caprylate/caprate, propylene glycol monocaprylate and propylene glycol monolaurate were measured. A magnetic bar was placed in a 10 ml, vial, and 3 ml, of oil was added thereto. Then, while the mixture was stirred at room temperature, 100 mg of the main component was added thereto and the mixture was stirred at 500 rpm or higher. After stirring for 24 hours, only a supernatant was taken by a centrifugal separator, and an amount of the main component dissolved in the oil phase was quantitated by using a liquid chromatograph.

[2] = as above; assay type: physicochemical; details: room temperature, stirring for 24 hours; for solubility at 24 h: oil or lipid, thermodynamic from solid
[3] = in glycerol caprylate/caprate, glycerol monooleate, propylene glycol monocaprylate and propylene glycol monolaurate
[4] = in glycerol fatty acid ester derivative or propylene glycol fatty acid ester derivative as oil component

Compound: 17β-N-(2,5-bis (trifluoromethyl)) phenylcarbamoyl-4-aza-5α-androst-1-en-3-one [dutasteride]
- solubility in a general oil [1]: low
- solubility of dutasteride [1, 3]: ≥ 2500 µg/mL
- solubility of dutasteride [1, 4]: ≥ 1000 µg/mL
- Solubility ([1]; solvent Castor oil): 1500 µg/mL
- Solubility ([1]; solvent Glycerol caprylate/caprate): 14340 µg/mL
- Solubility ([1]; solvent Glycerol monooleate): 4580 µg/mL
- Solubility ([1]; solvent Propylene glycol dicaprate): 770 µg/mL
- Solubility ([1]; solvent Propylene glycol dicaprylate): 1130 µg/mL
- Solubility ([1]; solvent Propylene glycol monocaprylate): 20980 µg/mL
- Solubility ([1]; solvent Propylene glycol monolaurate): 9340 µg/mL
- Solubility ([2]; solvent Glycerol tricaprylate): 840 µg/mL

Compound: CN1CC(=O)N2[C@H](c3ccc4c(c3)OCO4)c3[nH]c4ccccc4c3C[C@@H]2C1=O [tadalafil, 6R-trans-6-(1,3-benzodioxol-5-yl)-2,3,6,7,12,12a-hexahydro-2-methyl-pyrazino [1′,2′:1,6] pyrido[3,4-b]indole-1,4-dione]
- solubility in a general oil [1]: low
- solubility at 24 h ([1]; glycerol caprylate/caprate (oil), solvent Glycerol caprylate/caprate): 4130 µg/mL (≈ 10600 µM)
- solubility at 24 h ([1]; glycerol monooleate (oil), solvent Glycerol monooleate): 1110 µg/mL (≈ 2850 µM)
- solubility of tadalafil relative to that of dutasteride [1, 3]: ⅓
- solubility of tadalafil relative to the solubility of dutasteride [1, 4]: ½
- solubility at 24 h ([1]; solvent Castor oil): 1030 µg/mL (≈ 2650 µM)
- solubility at 24 h ([1]; solvent Soybean oil): 240 µg/mL (≈ 616 µM)
- solubility at 24 h ([1]; propylene glycol dicaprate (oil), solvent Propylene glycol dicaprate): 270 µg/mL (≈ 693 µM)
- solubility at 24 h ([1]; propylene glycol monocaprylate (oil), solvent Propylene glycol monocaprylate): 4090 µg/mL (≈ 10500 µM)
- solubility at 24 h ([1]; propylene glycol monolaurate (oil), solvent Propylene glycol monolaurate): 1030 µg/mL (≈ 2650 µM)
- solubility at 24 h ([2]; glycerol tricaprylate (oil), solvent Glycerol tricaprylate): 400 µg/mL (≈ 1030 µM)
- solubility at 24 h ([2]; propylene glycol dicaprylate (oil), solvent Propylene glycol dicaprylate): 440 µg/mL (≈ 1130 µM)
